This assay addresses T1, F508delCFTR (Homo sapiens, UniProt P13569, DEL508-508).
T1 construct: expressed in transfected cells; host or cells: CFBE41o- human lung derived epithelial cells (CFBE41o-F508delCFTR-HRP), doxycycline-inducible
Kind of assay: Cell Surface Expression-Horse Radish Peroxidase (CSE-HRP) Assay.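 On EC50 (with co-corrector): co-corrector chromenyl benzoic acid corrector at 2 or 3 µM.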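 On Maximum % activity (without co-corrector): % of on-plate positive control chromenyl benzoic acid corrector at 2 or 3 µM.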 It counts as cell-based. To be noted: for Maximum % activity (with co-corrector) / Emax: maximum at any tested concentration; for Emax: read-out: Maximum % activity (without co-corrector). The gist of the method:
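Corrector compounds were given as 8-point 3-fold series from 20 or 30 μM, with or without a 2 μM co-corrector, for 18-24 h at 33 °C. Surface HRP was read by luminol luminescence as % of positive control; variable-Hill-slope sigmoidal fitting gave EC50 from triplicate plates.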

Setting [1] is: test compound with co-corrector.
The mark [2] stands for this setting: test compound with co-corrector, read-out: EC50 (with co-corrector).
The mark [3] stands for this setting: test compound without co-corrector.
[4] abbreviates: test compound without co-corrector, read-out: EC50 (without co-corrector).
[5] abbreviates: test compound alone, without co-corrector, read-out: EC50 (without co-corrector).
[6] abbreviates: with co-corrector, read-out: EC50 (with co-corrector).

The values below come from patent US10829473B2, “Modulators of the cystic fibrosis transmembrane conductance regulator protein and methods of use” (AbbVie Overseas S.Á.R.L., priority 2017, dated 2020).

Read-outs that look alike come from different tables or passages of the source. Some results are limits rather than exact numbers.

T1 sequence (P13569 with tags, fused parts or gaps DEL508-508): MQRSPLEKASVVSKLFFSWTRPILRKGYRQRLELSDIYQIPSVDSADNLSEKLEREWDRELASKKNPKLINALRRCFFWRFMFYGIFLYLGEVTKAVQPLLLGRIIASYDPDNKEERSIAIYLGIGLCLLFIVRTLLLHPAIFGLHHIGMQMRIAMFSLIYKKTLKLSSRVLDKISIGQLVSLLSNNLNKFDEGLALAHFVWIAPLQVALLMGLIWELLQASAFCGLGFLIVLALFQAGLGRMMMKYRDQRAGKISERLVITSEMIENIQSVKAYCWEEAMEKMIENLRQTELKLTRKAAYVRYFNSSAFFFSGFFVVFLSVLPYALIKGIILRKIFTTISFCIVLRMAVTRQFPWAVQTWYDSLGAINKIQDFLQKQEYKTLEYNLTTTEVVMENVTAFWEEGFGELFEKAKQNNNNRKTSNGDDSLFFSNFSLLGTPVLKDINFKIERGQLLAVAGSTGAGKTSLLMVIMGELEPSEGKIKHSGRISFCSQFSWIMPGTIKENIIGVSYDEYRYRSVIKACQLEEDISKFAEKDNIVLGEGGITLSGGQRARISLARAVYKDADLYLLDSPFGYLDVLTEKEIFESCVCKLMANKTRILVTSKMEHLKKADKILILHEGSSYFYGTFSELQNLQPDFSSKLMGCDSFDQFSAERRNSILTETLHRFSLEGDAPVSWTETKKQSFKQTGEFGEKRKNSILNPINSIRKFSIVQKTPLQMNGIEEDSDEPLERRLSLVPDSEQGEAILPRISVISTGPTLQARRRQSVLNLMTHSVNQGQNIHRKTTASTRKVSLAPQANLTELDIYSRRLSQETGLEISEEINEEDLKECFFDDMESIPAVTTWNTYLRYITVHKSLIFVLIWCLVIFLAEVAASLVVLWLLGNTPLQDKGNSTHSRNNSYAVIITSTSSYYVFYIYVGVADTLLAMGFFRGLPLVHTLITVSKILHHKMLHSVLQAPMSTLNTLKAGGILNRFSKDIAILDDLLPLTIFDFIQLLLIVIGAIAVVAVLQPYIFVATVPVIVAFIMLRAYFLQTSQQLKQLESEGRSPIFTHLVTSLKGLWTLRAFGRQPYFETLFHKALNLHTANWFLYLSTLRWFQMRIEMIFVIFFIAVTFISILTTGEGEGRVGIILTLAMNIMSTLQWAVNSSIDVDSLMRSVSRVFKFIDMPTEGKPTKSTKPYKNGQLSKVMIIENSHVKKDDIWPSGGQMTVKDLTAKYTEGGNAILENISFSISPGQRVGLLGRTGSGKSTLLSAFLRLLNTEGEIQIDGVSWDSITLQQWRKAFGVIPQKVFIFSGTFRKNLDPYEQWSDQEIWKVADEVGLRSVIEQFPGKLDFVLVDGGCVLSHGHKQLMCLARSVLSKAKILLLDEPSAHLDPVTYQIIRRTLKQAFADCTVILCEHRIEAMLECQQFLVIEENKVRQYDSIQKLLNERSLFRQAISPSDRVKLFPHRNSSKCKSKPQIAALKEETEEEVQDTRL

For the molecule `COCC1(c2cnc(OC(C)C)c(C3(C(=O)NS(=O)(=O)c4cccc5ccccc45)CC3)c2)CC1` [Example GI-119, 1-{5-[1-(methoxymethyl)cyclopropyl]-2-[(propan-2-yl)oxy]pyridin-3-yl}-N-(naphthalene-1-sulfonyl)cyclopropane-1-carboxamide], the “Maximum % activity (with co-corrector)” value under setting [1] was “+++ (≥350)”. The EC50 reads like this: under setting [2], below 3 µM; under setting [4], below 3 µM. In addition, the Emax under setting [3] was above 150%.

`CCc1cnc(N2CCC(COC)CC2)c(C2(C(=O)NS(=O)(=O)c3cccc4[nH]ccc34)CC2)c1` [Example GI-120, 1-{5-ethyl-2-[4-(methoxymethyl)piperidin-1-yl]pyridin-3-yl}-N-(1H-indole-4-sulfonyl)cyclopropane-1-carboxamide]: under setting [1], the “Maximum % activity (with co-corrector)” value is given as “+++ (≥350)”. The EC50 by setting is: under setting [2], below 3 µM; under setting [4], 3 to 10 µM. Moreover, the Emax under setting [3] was above 150%.

As for `COCC1CCN(c2ncc(C3CCC3)cc2C2(C(=O)NS(=O)(=O)c3cccc4ncccc34)CC2)CC1` [Example GI-121, 1-{5-cyclobutyl-2-[4-(methoxymethyl)piperidin-1-yl]pyridin-3-yl}-N-(quinoline-5-sulfonyl)cyclopropane-1-carboxamide], under setting [1], the “Maximum % activity (with co-corrector)” value is listed as “+++ (≥350)”. Further, the EC50 under setting [2] is below 3 µM and the concentration giving a half-maximal response (EC50) under setting [4] is below 3 µM. The Emax under setting [3] was above 150%.

Take `COc1ccc(Br)cc1C1(C(=O)NS(=O)(=O)c2cccc3ccccc23)CC1` [Example I-1, 1-(5-bromo-2-methoxyphenyl)-N-(naphthalene-1-sulfonyl)cyclopropane-1-carboxamide]: the EC50 by setting is: under setting [5], below 3 µM; under setting [6], below 3 µM. Besides, the “Maximum % activity (with co-corrector)” value (with co-corrector) was “+++ (≥350)”. The Emax (without co-corrector) is above 150%.

In the case of `COc1ccc(C2CCC2)cc1C1(C(=O)NS(=O)(=O)c2cccc3ccccc23)CC1` [Example I-2, 1-(5-cyclobutyl-2-methoxyphenyl)-N-(naphthalene-1-sulfonyl)cyclopropane-1-carboxamide], the EC50 was below 3 µM under setting [5] and below 3 µM under setting [6]. In addition, the “Maximum % activity (with co-corrector)” value (with co-corrector) was “+++ (≥350)”. Further, under “without co-corrector”, the Emax was above 150%.

As for `COc1ncc(C2CCC2)cc1C1(C(=O)NS(=O)(=O)c2cccc3nc(C)ccc23)CC1` [Example I-3, 1-(5-cyclobutyl-2-methoxypyridin-3-yl)-N-(2-methylquinoline-5-sulfonyl)cyclopropane-1-carboxamide], the EC50 is, setting by setting: under setting [5], below 3 µM; under setting [6], below 3 µM. For the same molecule, the “Maximum % activity (with co-corrector)” value (with co-corrector) is “+++ (≥350)”. For the setting “without co-corrector”, the Emax was above 150%.

For the molecule `COc1ncc(C2CCC2)cc1C1(C(=O)NS(=O)(=O)c2cccc3ncccc23)CC1` [Example I-4, 1-(5-cyclobutyl-2-methoxypyridin-3-yl)-N-(quinoline-5-sulfonyl)cyclopropane-1-carboxamide], the EC50 was below 3 µM under setting [5] and below 3 µM under setting [6]. Moreover, under “with co-corrector”, the “Maximum % activity (with co-corrector)” value is “+++ (≥350)”. In addition, the Emax (without co-corrector) is above 150%.

Regarding `COc1ncc(C2CCC2)cc1C1(C(=O)NS(=O)(=O)c2cccc3ccccc23)CC1` [Example I-5, 1-(5-cyclobutyl-2-methoxypyridin-3-yl)-N-(naphthalene-1-sulfonyl)cyclopropane-1-carboxamide], the EC50 is 3 to 10 µM under setting [5] and below 3 µM under setting [6]. The “Maximum % activity (with co-corrector)” value (with co-corrector) is on record as “+++ (≥350)”. The Emax (without co-corrector) was above 150%.

As to `COc1ncc(C2CCC2)cc1C1(C(=O)NS(=O)(=O)c2cccc3c2CCCN3)CC1` [Example I-6, 1-(5-cyclobutyl-2-methoxypyridin-3-yl)-N-(1,2,3,4-tetrahydroquinoline-5-sulfonyl)cyclopropane-1-carboxamide], the concentration giving a half-maximal response (EC50) by setting is: under setting [5], below 3 µM; under setting [6], below 3 µM. In addition, the “Maximum % activity (with co-corrector)” value (with co-corrector) was “+++ (≥350)”. In addition, the Emax (without co-corrector) is above 150%.

Take `COc1cccc(OC)c1C1(C(=O)NS(=O)(=O)c2cccc3ccccc23)CC1` [Example I-7, 1-(2,6-dimethoxyphenyl)-N-(naphthalene-1-sulfonyl)cyclopropane-1-carboxamide]: the half-maximal effective concentration (EC50) was 3 to 10 µM under setting [5] and below 3 µM under setting [6]. Further, for the setting “with co-corrector”, the “Maximum % activity (with co-corrector)” value was “+++ (≥350)”. The Emax (without co-corrector) was above 150%.

With `COc1ncc(C(F)(F)F)cc1C1(C(=O)NS(=O)(=O)c2cccc3ccccc23)CC1` [Example I-8, 1-[2-methoxy-5-(trifluoromethyl)pyridin-3-yl]-N-(naphthalene-1-sulfonyl)cyclopropane-1-carboxamide], the EC50 is, setting by setting: under setting [5], below 3 µM; under setting [6], below 3 µM. Where the note is “with co-corrector”, the “Maximum % activity (with co-corrector)” value was “+++ (≥350)”. For the same molecule, the Emax (without co-corrector) is above 150%.

As to `COc1ccc(Br)cc1C1(C(=O)NS(=O)(=O)c2cccc3c2CCCN3)CCC1` [Example I-9, 1-(5-bromo-2-methoxyphenyl)-N-(1,2,3,4-tetrahydroquinoline-5-sulfonyl)cyclobutane-1-carboxamide], the EC50 is, setting by setting: under setting [5], below 3 µM; under setting [6], below 3 µM. Further, under “with co-corrector”, the “Maximum % activity (with co-corrector)” value is “+++ (≥350)”. Moreover, the Emax (without co-corrector) is above 150%.

As for `COc1ccc(C2CCC2)cc1C1(C(=O)NS(=O)(=O)c2cccc3c2CCCN3)CCC1` [Example I-10, 1-(5-cyclobutyl-2-methoxyphenyl)-N-(1,2,3,4-tetrahydroquinoline-5-sulfonyl)cyclobutane-1-carboxamide], the EC50 reads like this: under setting [5], 3 to 10 µM; under setting [6], below 3 µM. The “Maximum % activity (with co-corrector)” value (with co-corrector) is recorded as “+++ (≥350)”. Besides, the Emax (without co-corrector) was above 150%.

Turning to `COc1ccc(Br)cc1C1(C(=O)NS(=O)(=O)c2cccc3c2CCCN3)CC1` [Example I-11, 1-(5-bromo-2-methoxyphenyl)-N-(1,2,3,4-tetrahydroquinoline-5-sulfonyl)cyclopropane-1-carboxamide], the EC50 under setting [5] was below 3 µM and the EC50 under setting [6] was below 3 µM. Further, the “Maximum % activity (with co-corrector)” value (with co-corrector) is recorded as “+++ (≥350)”. Also, for the setting “without co-corrector”, the Emax was above 150%.

Regarding `COc1ccc(C2CC2)cc1C1(C(=O)NS(=O)(=O)c2cccc3ccccc23)CC1` [Example I-12, 1-(5-cyclopropyl-2-methoxyphenyl)-N-(naphthalene-1-sulfonyl)cyclopropane-1-carboxamide], the EC50 by setting is: under setting [5], below 3 µM; under setting [6], below 3 µM. Moreover, the “Maximum % activity (with co-corrector)” value (with co-corrector) is on record as “+++ (≥350)”. Further, the Emax (without co-corrector) is above 150%.

In the case of `COc1ccc(C2CC2)cc1C1(C(=O)NS(=O)(=O)c2cccc3ncccc23)CC1` [Example I-13, 1-(5-cyclopropyl-2-methoxyphenyl)-N-(quinoline-5-sulfonyl)cyclopropane-1-carboxamide], the concentration giving a half-maximal response (EC50) under setting [5] is below 3 µM and the EC50 under setting [6] is below 3 µM.

As for `COc1ccc(OC(C)C)cc1C1(C(=O)NS(=O)(=O)c2cccc3ncccc23)CC1` [Example I-14, 1-{2-methoxy-5-[(propan-2-yl)oxy]phenyl}-N-(quinoline-5-sulfonyl)cyclopropane-1-carboxamide], the EC50 under setting [5] is below 3 µM and the EC50 under setting [6] is below 3 µM. In addition, the “Maximum % activity (with co-corrector)” value (with co-corrector) is recorded as “+++ (≥350)”. Moreover, the Emax (without co-corrector) is above 150%.

Take `COc1ncc(C)cc1C1(C(=O)NS(=O)(=O)c2cccc3ccccc23)CC1` [Example I-15, 1-(2-methoxy-5-methylpyridin-3-yl)-N-(naphthalene-1-sulfonyl)cyclopropane-1-carboxamide]: the EC50 under setting [5] lay in the range of 3 to 10 µM and the EC50 under setting [6] fell in the range of 3 to 10 µM. In addition, for the setting “with co-corrector”, the “Maximum % activity (with co-corrector)” value is “+++ (≥350)”. Moreover, the Emax (without co-corrector) is above 150%.

Consider `COc1ccc(C2CCC2)cc1C1(C(=O)NS(=O)(=O)c2cccc3c2CCCN3)CC1` [Example I-16, 1-(5-cyclobutyl-2-methoxyphenyl)-N-(1,2,3,4-tetrahydroquinoline-5-sulfonyl)cyclopropane-1-carboxamide], for which the EC50 reads like this: under setting [5], 3 to 10 µM; under setting [6], below 3 µM. Besides, for the setting “with co-corrector”, the “Maximum % activity (with co-corrector)” value was “+++ (≥350)”. The Emax (without co-corrector) was above 150%.

Turning to `COc1ccc(C2CCC2)cc1C1(C(=O)NS(=O)(=O)c2cccc3ncccc23)CC1` [Example I-17, 1-(5-cyclobutyl-2-methoxyphenyl)-N-(quinoline-5-sulfonyl)cyclopropane-1-carboxamide], the EC50 runs as follows: under setting [5], below 3 µM; under setting [6], below 3 µM. In addition, the “Maximum % activity (with co-corrector)” value (with co-corrector) is recorded as “+++ (≥350)”. The Emax (without co-corrector) is above 150%.

Take `COc1ccc(Br)cc1C1(C(=O)NS(=O)(=O)c2cccc3ncccc23)CC1` [Example I-18, 1-(5-bromo-2-methoxyphenyl)-N-(quinoline-5-sulfonyl)cyclopropane-1-carboxamide]: the EC50 runs as follows: under setting [5], below 3 µM; under setting [6], below 3 µM. Further, the “Maximum % activity (with co-corrector)” value (with co-corrector) is “+++ (≥350)”. Also, the Emax (without co-corrector) is above 150%.

For `COc1ncc(C2CCC2)cc1C1(C(=O)NS(=O)(=O)c2cccn3nccc23)CC1` [Example I-19, 1-(5-cyclobutyl-2-methoxypyridin-3-yl)-N-(pyrazolo[1,5-a]pyridine-4-sulfonyl)cyclopropane-1-carboxamide], the EC50 under setting [5] is below 3 µM and the concentration giving a half-maximal response (EC50) under setting [6] was below 3 µM. The “Maximum % activity (with co-corrector)” value (with co-corrector) is “+++ (≥350)”. In addition, the Emax (without co-corrector) is above 150%.

Broadly, the EC50 is the concentration at which the effect is half-maximal.
